We go through three compounds from patent US20120157492A1, “ANTIBIOTIC DRUG” (priority 2008, published 2012).

SMILES strings stand for the structures. Values after ≈ are worked out from the molar mass of the structure shown. Read-outs that look alike come from different tables or passages of the source.

In data set [1] the test system is S. pneumo-Levo (S): Clinical isolate of S. pnemoniae Levofloxacin sensitive strains. In words: MIC by broth microdilution, levofloxacin-sensitive S. pneumoniae. The class given is cell-based. As to conditions: Streptococcus pneumoniae. Here is the method:
(§1) Minimum inhibitory concentrations (MICs) were determined by the Broth microdilution method following the guidelines of the Clinical and Laboratory Standards Institute (CLSI). See, e.g., “Methods for Dilution Antimicrobial Susceptibility Tests for Bacterial That Grow Aerobically,” CLSI 2006, Approved standard-7th Ed. M7-A7; and “Performance standards for Antimicrobial Susceptibility Testing,” CLSI 2007, 17th Informational Supplement, M100-S17. Note that since there is no CLSI recommended broth microdilution (BMD) method for N. gonorrhoeae, the BMD method recommended for N. meningitis was used.
(§2) MICs were determined using the broth microdilution method.

For data set [2], the system named is S. pneumo-Levo (R): Clinical isolate of S. pnemoniae Levofloxacin resistant strains. The data set can be described thus: MIC by broth microdilution, levofloxacin-resistant S. pneumoniae. The class given is cell-based. Particulars: Streptococcus pneumoniae. How it is done:
as §1, §2

Data set [3] deals with MRSA-CIP (R): Clinical isolate of MRSA-ciprofloxacin resistant strain. The data set can be described thus: MIC by broth microdilution, ciprofloxacin-resistant MRSA. The class given is cell-based, S. aureus. Particulars: Staphylococcus aureus. Here is the method: as §1, §2
The nature of data set [4]: Pharmacokinetic study in rats (IV and PO). Format: in vivo. As to conditions: male, Sprague-Dawley, rat, plasma; for bioavailability: oral, read-out: oral bioavailability (% F); for half-life: read-out: terminal half-life (t1/2) (converted). How it is done: Each of the malic acid salts of Compound 1 and Compound 1′ was dissolved in 0.7% lactic acid and 3% dextrose in water at a pH about 4.5 and 2.5% L-glutamic acid in water at a pH about 5.4 to provide solutions used in this pharmacokinetic study. Male Sprague-Dawley rats (BioLASCO Taiwan Co., Ltd., Taipei, Taiwan) weighing 300-400 g were surgically implanted with polyethylene (PE-50) cannula in the jugular vein for blood sampling while under pentobarbital anesthesia the day before the in-life phase. The rats were treated with a Compound 1 or Compound 1′ solution via intravenous injection (IV) at a dose of 2.5 mg/kg (N=3) or by oral gavage (PO) at a dose of 5 mg/kg (N=4). Dose levels were based on the free base form of the compounds. For PO study, the rats were fasted overnight with water ad libitum, and then dosed the next day. Serial blood samples were collected from animals pre-dose, at 5, 10 (IV only), 15, and 30 min, and at 1, 2, 4, 6, 8, 12, and 24 hours post-dose and heparinized plasma was recovered after centrifugation. Concentrations of the test compound in blood plasma were determined by liquid chromatography-mass spectrometry analysis (MDS SCIEX, API 3000, Applied Biosystems, CA, USA) with a lower limit of quantitation of 2 ng/mL. Standard pharmacokinetic parameters were assessed by non-compartmental analysis using WinNonlin (Version 4.0, Pharsight, CA, USA). The area under the concentration vs. time curve from the time of dosing to infinity (AUC(0-inf)) was calculated by the linear trapezoidal rule. Oral bioavailability (% F) was calculated from the dose-normalized ratio of plasma exposure following oral administration to the intravenous plasma exposure in the rats by the following equation: % F=(AUCpo/AUCiv)×(Div/Dpo)×100% where D is the dose and AUC is the area-under-the-plasma-concentration-time-curve from 0 to infinity.

In data set [5] the test system is MRSA-CIP (S): Clinical isolate of MRSA-ciprofloxacin sensitive strain. In words: MIC by broth microdilution, ciprofloxacin-sensitive MRSA. Format: cell-based. Particulars: Staphylococcus aureus. How it is done:
as §1, §2

The test system of data set [6] is 8 ATCC reference strains and 10 clinical strains (E. coli, P. aeruginosa, S. aureus, E. faecalis, E. faecium, S. pneumoniae, H. influenzae, N. gonorrhoeae). In words: Inhibition of bacteria, MIC by broth microdilution (CLSI). Format: cell-based. How it is done:
Minimum inhibitory concentrations (MICs) were determined by the Broth microdilution method following the guidelines of the Clinical and Laboratory Standards Institute (CLSI). See, e.g., “Methods for Dilution Antimicrobial Susceptibility Tests for Bacterial That Grow Aerobically,” CLSI 2006, Approved standard-7th Ed. M7-A7; and “Performance standards for Antimicrobial Susceptibility Testing,” CLSI 2007, 17th Informational Supplement, M100-S17. Note that since there is no CLSI recommended broth microdilution (BMD) method for N. gonorrhoeae, the BMD method recommended for N. meningitis was used. Each of the three compounds was dissolved in water before sterile filtration to prepare stock solutions. The stock solutions were stored at −20° C. in aliquots. […] The 2× stock was dispensed at 50 μl per well into the 96-well microtitre plates. The plates were either used fresh or stored at −80° C. before use. To conduct the test, an aliquot of the frozen bacterial isolates was subcultured onto sheep blood agar for all species except that H. influenzae and N. gonorrhoeae were subculuted on chocolate plates. All plate media were purchased from BBL (Becton Dickinson Microbiology System, Cockeysville, Md.). The day before the antimicrobial susceptibility testing, all bacteria were sub-cultured again to obtain fresh starting cultures. […]

As for `C[C@H]1COc2c(N3CCN(C)CC3)c(F)cc3c(=O)c(C(=O)O)cn1c23` [Levo, Levofloxacin], the MIC50 in data set [1] is 16 µg/mL (≈ 44.3 µM); in data set [2], more than 128 µg/mL.

For the compound `COc1c(N2C[C@@H](C)C[C@H](N)C2)ccc2c(=O)c(C(=O)O)cn(C3CC3)c12` [Compound 1′, reference compound], the MIC50 in data set [3] came out at 1 µg/mL (≈ 2.69 µM); in data set [1], 0.06 µg/mL (≈ 0.162 µM); in data set [5], 0.03 µg/mL (≈ 0.0808 µM); in data set [2], 0.5 µg/mL (≈ 1.35 µM). Moreover, the MIC90 in data set [3] came out at 2 µg/mL (≈ 5.38 µM); in data set [1], 0.06 µg/mL (≈ 0.162 µM); in data set [5], 0.06 µg/mL (≈ 0.162 µM); in data set [2] it was 2 µg/mL (≈ 5.38 µM). Moreover, the bioavailability in data set [4] (5 mg/kg) was determined as 13.2 ± 3.3%.

In the case of `COc1c(N2C[C@H](C)C[C@H](N)C2)ccc2c(=O)c(C(=O)O)cn(C3CC3)c12` [Compound 1, 7-((3S,5R)-3-amino-5-methylpiperidin-1-yl)-1-cyclopropyl-8-methoxy-4-oxo-1,4-dihydroquinoline-3-carboxylic acid], the MIC50 is 1 µg/mL (≈ 2.69 µM) in data set [3], 0.03 µg/mL (≈ 0.0808 µM) in data set [1], 0.03 µg/mL (≈ 0.0808 µM) in data set [5] and 0.25 µg/mL (≈ 0.673 µM) in data set [2]. Also, the MIC90 in data set [3] amounted to 1 µg/mL (≈ 2.69 µM); in data set [1] it was 0.06 µg/mL (≈ 0.162 µM); in data set [5] it was 0.06 µg/mL (≈ 0.162 µM); in data set [2] it was 1 µg/mL (≈ 2.69 µM). The AUC(0-inf) came out at 1530 ± 66 ng·h/mL in data set [4] (IV injection, 2.5 mg/kg) and 1400 ± 464 ng·h/mL in data set [4] (PO, 5 mg/kg). For the same compound, the half-life is 148 ± 48.1 min in data set [4] (IV injection, 2.5 mg/kg) and 215 ± 102 min in data set [4] (PO, 5 mg/kg). Also, the Cmax in data set [4] (PO, 5 mg/kg, read-out: maximum of concentration (Cmax)) amounted to 622 ± 170 ng/mL. The Tmax in data set [4] (PO, 5 mg/kg, read-out: time at the maximum of concentration (Tmax)) amounted to 15 min. Besides, the bioavailability in data set [4] (5 mg/kg) is approximately 45.9%. Further, in data set [6], the “MICs against the tested bacterial strains, compared with ciprofloxacin” value is “low MICs comparable with, or even lower than, that of ciprofloxacin”. For the same compound, the “efficacy in inhibiting bacteria compared to malic acid salt of Compound 1′” value in data set [6] is “more efficacious in inhibiting in some S. aureus, H. influenzae, and P. aeruginosa stains”.
